Article PMC10245146, “CNS4 causes subtype‐specific changes in agonist efficacy and reversal potential of permeant cations in NMDA receptors” (Pharmacology Research & Perspectives, 2023)

Legend:
[1] = test system: untransfected HEK293T cells; assay: Whole-cell patch-clamp on untransfected HEK293T cell; assay type: cell-based, human; details: 100 μM CNS4
Description: (§1) Whole‐cell patch‐clamp electrophysiology studies were carried out in HEK‐293T cells expressing recombinant NMDA receptors that lack native functional NMDA receptors.[29], [30], [31] An equal quantity of (1 μg) cDNA for GluN1a, GluN2 subunits were co‐transfected 24‐48 h before patch‐clamp electrophysiology assay. […] Cells were carefully washed before performing experiments and were used for the electrophysiology experiments after 24 to 48 h incubation at 37°C with 5%CO2. The whole‐cell patch‐clamp electrophysiology assay was performed using semi‐automated patch‐clamp equipment, Port‐a‐Patch (Nanion Technologies GmbH). Following are the constituents of various solutions used for patch‐clamp electrophysiology: internal solution ([mM] NaCl 10, EGTA 20, CsF 110, HEPES 10), Mg‐free external (recording) solution ([mM] NaCl 140, KCl 4, CaCl2 2, HEPES 10, D‐GlucoseMonohydrate 5), and Mg‐free seal enhancer solution ([mM] NaCl 80, KCl 3, CaCl2 35, HEPES 10). Nanion NPC chips with […] resistance were used for the HEK‐293T cell recordings.
(§2) FIGURE 1 CNS4 sensitizes ambient concentration of agonists in GluN2 subunit dependent manner. […] Statistical significance was calculated from the Wilcoxon matched‐pairs signed rank test, except the comparison between 1/2A & 1/2AB CNS4 with no agonist data, which was done by unpaired t‐test. […]

GluN1/2A NMDA receptors = target: T1, GluN1/2A NMDA receptors (UniProt P35439+Q12879); assay: Current-voltage (I-V) relationship, Xenopus oocytes expressing 1/2A; assay type: cell-based; details: for Difference in reversal potential (∆Erev) between W and WO CNS4 / Difference in reversal potential (∆Erev) between WO and W CNS4: 100 μM CNS4; for Reversal potential (Erev): with 100 μM CNS4
T1 construct: expressed in transfected cells; host or cells: Xenopus oocytes (cRNA injection)
T1 sequence (Q12879 23-1464, other chains not shown): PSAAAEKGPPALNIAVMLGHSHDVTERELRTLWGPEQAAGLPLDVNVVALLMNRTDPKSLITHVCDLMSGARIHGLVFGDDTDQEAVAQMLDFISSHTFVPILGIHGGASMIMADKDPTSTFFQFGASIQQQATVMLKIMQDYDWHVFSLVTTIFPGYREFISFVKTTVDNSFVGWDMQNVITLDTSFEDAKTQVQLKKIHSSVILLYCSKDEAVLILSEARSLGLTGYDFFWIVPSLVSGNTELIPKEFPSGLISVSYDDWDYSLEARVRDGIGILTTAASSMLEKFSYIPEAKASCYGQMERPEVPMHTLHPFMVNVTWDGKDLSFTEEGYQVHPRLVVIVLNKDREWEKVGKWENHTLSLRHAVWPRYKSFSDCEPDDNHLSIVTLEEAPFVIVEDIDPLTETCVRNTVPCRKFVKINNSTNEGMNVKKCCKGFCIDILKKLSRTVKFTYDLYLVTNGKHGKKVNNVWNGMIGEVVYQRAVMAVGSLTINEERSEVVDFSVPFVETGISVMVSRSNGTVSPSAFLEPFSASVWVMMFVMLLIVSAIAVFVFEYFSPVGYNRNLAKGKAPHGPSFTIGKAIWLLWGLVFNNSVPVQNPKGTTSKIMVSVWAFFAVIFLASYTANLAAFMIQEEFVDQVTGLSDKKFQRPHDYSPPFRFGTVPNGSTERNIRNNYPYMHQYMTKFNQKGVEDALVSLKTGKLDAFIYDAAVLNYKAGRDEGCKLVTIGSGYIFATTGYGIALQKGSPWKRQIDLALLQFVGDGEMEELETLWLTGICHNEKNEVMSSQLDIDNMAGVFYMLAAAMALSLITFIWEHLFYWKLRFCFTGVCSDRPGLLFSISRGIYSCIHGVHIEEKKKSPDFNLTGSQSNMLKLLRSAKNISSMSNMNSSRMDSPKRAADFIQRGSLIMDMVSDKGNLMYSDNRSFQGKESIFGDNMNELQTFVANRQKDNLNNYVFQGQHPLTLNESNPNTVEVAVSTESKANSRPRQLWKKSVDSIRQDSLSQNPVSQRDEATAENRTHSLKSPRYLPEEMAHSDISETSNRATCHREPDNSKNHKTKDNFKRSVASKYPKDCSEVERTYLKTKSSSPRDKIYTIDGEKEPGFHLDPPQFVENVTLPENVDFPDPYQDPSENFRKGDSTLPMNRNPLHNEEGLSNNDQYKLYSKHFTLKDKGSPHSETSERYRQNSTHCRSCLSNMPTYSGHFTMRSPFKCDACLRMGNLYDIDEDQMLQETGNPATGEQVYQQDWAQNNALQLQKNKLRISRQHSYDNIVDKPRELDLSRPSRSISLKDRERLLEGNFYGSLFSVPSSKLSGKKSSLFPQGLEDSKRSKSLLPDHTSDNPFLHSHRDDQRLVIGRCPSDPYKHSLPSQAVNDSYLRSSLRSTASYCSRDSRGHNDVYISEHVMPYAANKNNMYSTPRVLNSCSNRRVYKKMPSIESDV
Description: There are two sets of recording solutions used for the I‐V assay: solutions with normal (1) and low (2) Ca^2+ concentrations. The normal Ca^2+ solutions contained (mM): 115 NaCl, 1 KCl, 1.8 CaCl2, 10 HEPES. PH was adjusted to 7.2. Low calcium solutions contained 0.018 mM CaCl2 and other components were the same as normal Ca^2+ solution. To study the effects of CNS4 in the absence of extracellular Na^+, NaCl was replaced with impermeable agent, N‐methyl‐D‐glucamine (NMDG, […]). HCl was used to dissolve the NMDG and to adjust the PH to 7.2. NMDG‐containing solutions are termed Nafree. […] There were four different agonist solutions used for each set of Ca^2+ recordings: (1) Agonist, (2) Agonist+CNS4, (3) Agonist in Nafree solution, (4) Agonist+CNS4 in Nafree solution. Each solution was applied to the oocytes in sequential order and the same order was followed for all I‐V recordings. Low Ca^2+ experiments were carried out in the same way as normal Ca^2+ experiments, except that they had 0.018 mM Ca^2+ in all four agonist and recording solutions. Steady state current responses evoked by these solutions at each voltage step were measured. Reversal potentials (Erev) were obtained from x‐intercept values when y = 0 after fitting the I‐V data using a third order polynomial, non‐linear curve fitting equation Y=B0+B1^*X+B2^*X^2+B3^*X^3 . Erev obtained from each oocyte with different agonists were compared in a pairwise manner. These differences were then averaged. Paired or unpaired student t‐test was performed to compare the data as mentioned in each figure legend.
FIGURE 5 Effect on CNS4 on agonist induced current directions in 1/2A receptors. Current –Voltage (I‐V) relationship of 1/2A receptors was studied with normal (A) and low (B) CaCl2 containing extracellular solutions. […] (C) Comparison of reversal potentials values. Dark and light blue circles indicate normal and low CaCl2 experiments, respectively. Dark and light red squares indicate equivalent I‐V experiments with NMDG (Nafree). Dotted and thick lines denote the absence (empty circles or squares) and presence (filled circles or squares) of 100 μM CNS4, respectively. Traces (Ai&ii, Bi&ii) represent the current response at −90 mv. N = 5 (5) & n = 7(7) for normal & low Ca^2+ assays, respectively. Erev obtained from each oocyte with different agonists were compared in a pairwise manner. Paired student t‐test was performed to compare the data presented at Ci. Unpaired student's t‐test was performed to compare the difference in reversal potentials (triangles). *p < .05, **p < .01, ***p < .001, […].

GluN1/2AB receptors = assay: Whole-cell patch-clamp, HEK293T cells expressing recombinant GluN1/2AB; assay type: cell-based; details: 100 μM CNS4 applied 4 s before and with 100 μM glutamate + 100 μM glycine; agonist alone −546 ± 32.34 pA; n = 8(4), p = .023
Description: as §1, §2

Compound: O=C(NC(=S)N1CCCCC1c1cccnc1)c1ccc(F)cc1 (stereo not drawn) [CNS4]
- Current response [1]: did not produce any measurable current response
- Difference in reversal potential (∆Erev) between W and WO CNS4 (GluN1/2A NMDA receptors; low Ca2+, Nafree, n = 7): −7.32 ± 3.95 mV
- Difference in reversal potential (∆Erev) between W and WO CNS4 (GluN1/2A NMDA receptors; low Ca2+, with Na+, n = 6): 8.76 ± 3.15 mV
- Difference in reversal potential (∆Erev) between WO and W CNS4 (GluN1/2A NMDA receptors; normal Ca2+, Nafree, n = 3): −6.79 ± 1.98 mV
- Difference in reversal potential (∆Erev) between WO and W CNS4 (GluN1/2A NMDA receptors; normal Ca2+, with Na+, n = 4): 24.85 ± 3.26 mV
- Reversal potential (Erev) (GluN1/2A NMDA receptors; 1.8 mM (normal) Ca2+, with Na+, 100 μM glutamate + glycine, without CNS4 −12.05 ± 8.18, p = .004): 10.49 ± 8.23 mV
- Reversal potential (Erev) (GluN1/2A NMDA receptors; low Ca2+, Nafree, without CNS4 −61.38 ± 3.99, p = .113): −68.71 ± 4.82 mV
- Reversal potential (Erev) (GluN1/2A NMDA receptors; normal Ca2+, Nafree (NMDG), without CNS4 −18.16 ± 5.09, p = .16): −32.93 ± 7.03 mV
- Peak current amplitude (GluN1/2AB receptors): –380.7 ± 36.61 pA
